ChEMBL document CHEMBL3137667, “[Drug-induced liver injury; fourteenth updated edition of the bibliographic database of liver injuries and related drugs]” (Gastroenterol Clin Biol, 2004)

Tests used:
[1] = Highest frequency of moderate liver toxicity observed during clinical trials, expressed as a percentage. [column '% BIOL' in source]; conditions: human
[2] = Highest frequency of acute liver toxicity observed during clinical trials, expressed as a percentage. [column '% AIGUE' in source]; conditions: human
[3] = human, serum
[4] = human, serum; remark: listed apart in the source
[5] = human
[6] = human; remark: listed apart in the source
[7] = human; remark: listed apart in the source
[8] = human, serum, 4383 h
[9] = human; remark: listed apart in the source
[10] = human; remark: listed apart in the source
[11] = human; remark: listed apart in the source
[12] = human; remark: listed apart in the source
[13] = human; remark: listed apart in the source
[14] = human; remark: listed apart in the source
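Wherever Hepatotoxicity (association with vascular disease) is given: count of indexed literature references reporting vascular liver injury in humans, e.g. peliosis hepatitis, hepatic veno-occlusive disease or Budd-Chiari syndrome.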
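Wherever Hepatotoxicity (benign tumour) is given: value is a count of indexed literature references citing a benign tumour confirmed by histopathology.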
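Wherever Hepatotoxicity (choleostasis) is given: human cholestatic liver injury, shown by histopathology or by peak ALT or AST elevation over alkaline phosphatase ratio below 2, value counts indexed literature reports.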
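Wherever Hepatotoxicity (chronic liver disease) is given: chronic liver injury confirmed by histopathology or persistently raised serum aminotransferase activity beyond 6 months, value given as the count of indexed literature references.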
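Wherever Hepatotoxicity (cirrhosis) is given: value is a count of indexed literature references reporting cirrhosis confirmed by histopathology.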
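Wherever Hepatotoxicity (cytolytic) is given: human cytolytic liver injury, shown by histopathology or by a ratio above 5 of peak ALT or AST elevation to alkaline phosphatase elevation, value counts indexed references.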
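Wherever Hepatotoxicity (granulomatous hepatitis) is given: value is a count of indexed literature references reporting granulomatous liver disease confirmed by histopathology.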
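Wherever Hepatotoxicity (malignant tumour) is given: malignant tumour confirmed by histopathology, value gives the count of indexed literature references reporting it.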
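Wherever Hepatotoxicity (severe hepatitis) is given: human clinical data: severe hepatitis, meaning potentially life-threatening liver failure or clinically observed cases, the value counts how many indexed literature references report it.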
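Wherever Hepatotoxicity (steatosis) is given: steatosis confirmed by histopathology, value is the count of indexed references.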

Substance | Hepatotoxicity (moderate) [1] | Hepatotoxicity (acute) [2] | Hepatotoxicity (moderate) [3] | Hepatotoxicity (acute) [4] | Hepatotoxicity (cytolytic) [5] | Hepatotoxicity (choleostasis) [6] | Hepatotoxicity (severe hepatitis) [7] | Hepatotoxicity (chronic liver disease) [8] | Hepatotoxicity (cirrhosis) [9] | Hepatotoxicity (granulomatous hepatitis) [10] | Hepatotoxicity (association with vascular disease) [11] | Hepatotoxicity (steatosis) [12] | Hepatotoxicity (malignant tumour) [13] | Hepatotoxicity (benign tumour) [14]
ADALIMUMAB | 12.1% | 0% | 1 | 0 | 0 | 0 | 0 | 0 | 0 | 0 | 0 | 0 | 0 | 0
BEMIPARIN SODIUM | 0% | 0% | 1 | 0 | 0 | 0 | 0 | 0 | 0 | 0 | 0 | 0 | 0 | 0
CAPROMAB PENDETIDE | < 1% | 0% | 1 | 0 | 0 | 0 | 0 | 0 | 0 | 0 | 0 | 0 | 0 | 0
CHOLESTYRAMINE | 30% | 0% | 11 | 0 | 0 | 0 | 0 | 0 | 0 | 0 | 0 | 0 | 0 | 0
COLISTIN | 0% | 0% | 1 | 0 | 0 | 0 | 0 | 0 | 0 | 0 | 0 | 0 | 0 | 0
DENILEUKIN DIFTITOX | 45% | 10% | 3 | 1 | 1 | 0 | 0 | 0 | 0 | 0 | 0 | 0 | 0 | 0
EPOETIN ALFA | 20% | 0% | 4 | 0 | 0 | 0 | 0 | 0 | 0 | 0 | 0 | 0 | 0 | 0
ETARACIZUMAB | 77.8% | 0% | 1 | 0 | 0 | 0 | 0 | 0 | 0 | 0 | 0 | 0 | 0 | 0
GALLIUM | 28.6% | 21.4% | 1 | 1 | 0 | 1 | 0 | 0 | 0 | 0 | 0 | 0 | 0 | 0
GENTAMICIN | 14.3% | 0% | 7 | 0 | 0 | 0 | 0 | 0 | 0 | 0 | 0 | 0 | 0 | 0
INTERLEUKIN 1BETA | 75% | 0% | 1 | 0 | 0 | 0 | 0 | 0 | 0 | 0 | 0 | 0 | 0 | 0
LENTINAN | 2% | 0% | 2 | 0 | 0 | 0 | 0 | 0 | 0 | 0 | 0 | 0 | 0 | 0
LOBAPLATIN | 3.7% | 0% | 1 | 0 | 0 | 0 | 0 | 0 | 0 | 0 | 0 | 0 | 0 | 0
NARTOGRASTIM | 0% | 0% | 1 | 0 | 0 | 0 | 0 | 0 | 0 | 0 | 0 | 0 | 0 | 0
NEDAPLATIN | 19.2% | 0% | 1 | 0 | 0 | 0 | 0 | 0 | 0 | 0 | 0 | 0 | 0 | 0
NYSTATIN | 33.3% | 0% | 3 | 1 | 1 | 0 | 0 | 0 | 0 | 0 | 0 | 0 | 0 | 0
PALIVIZUMAB | 3.6% | 0% | 1 | 0 | 0 | 0 | 0 | 0 | 0 | 0 | 0 | 0 | 0 | 0
POLOXAMER | 7.7% | 0% | 1 | 0 | 0 | 0 | 0 | 0 | 0 | 0 | 0 | 0 | 0 | 0
